The term Kd denotes the constant that tells how readily two partners part at equilibrium. Lower therefore signals tighter binding. In general, IC50 refers to the concentration needed to halve the response being measured.

In assay [1] the target is FKBP12 ternary complex with FRB (Homo sapiens, UniProt P42345+P62942). The assay can be described thus: SPR assay to characterize ternary complex formation with FKBP12 (FRB injected over compound-saturated FKBP12). In kind it is binding. Conditions: FRB dilutions with 100 nM test compound over immobilized FKBP12. The procedure:
Biotinylated avi-FKBP12 was immobilized on a streptavidin chip (Cytiva Series S SA) using a Biacore 8K or 8k+ (Cytiva). To achieve an immobilization level of 100 RU, 0.3 μg/ml biotinylated avi-FKBP12 were injected for 80 sec at a flow rate of 10 μl/min. Serial dilution of FRB was prepared (12 concentrations, 3-fold dilutions, 0.00011-20 μM) and supplemented with 100 nM of a test compound. A-B-A injection mode was used to ensure saturation immobilized FKBP12 with respective test compound. 100 nM solution of the respective test compound was injected before FRB injection for 120 sec and during dissociation for 420 sec. The FRB dilutions were then injected 120 seconds contact time with increasing concentrations. Rapamycin was used as reference sample. 50 mM HEPES pH 7.5, 150 mM NaCl, 2 mM MgCl2, 1 mM DTT, 0.05% Tween-20, 1% DMSO was used as running buffer at a flow rate of 30 μl/min. The multi-cycle kinetics data were fit to a 1:1 binding model to measure the association rate ka (1/Ms), the dissociation rate kd (1/s) and the affinity Kd (M). In case of fast association and dissociation, steady state affinity analysis following the law of mass action was used to determine the affinity Kd (M).
Background: Surface plasmon resonance follows binding to a sensor surface in real time, without labels.

The target in a further assay is T1, mTORC1 (Homo sapiens, UniProt P42345+P62942).
T1 construct: endogenous in cells; host or cells: PC-3 cells
The assay can be described thus: mTORC1 inhibition in PC-3 cells, AlphaLISA of p70S6K pT389 levels. In kind it is cell-based. Particulars: mTORC1 as measured by inhibition of p70S6K pT389 levels, read-out: mTROC1 IC50. The procedure: mTORC1 inhibition was determined via analysis of phosphorylation levels of Phospho-p70 S6 kinase (p70S6K pT389) and Phospho-S6 Ribosomal Protein (pRPS6 pS240/pS244) with the corresponding AlphaLISA kits (PerkinElmer Alpha SF Ultra™ Multiplex phospho (Thr389)/total p70 S6K Assay Kit (Eu/Tb) and AlphaLISA SF Ultra™ p-Ribosomal Protein S6 (Ser240/244) Assay Kit).
%−activity=100*((Sample−Low control)/(High control−Low control))
On the technique in general: In Alpha technology, singlet oxygen from a donor bead excites a nearby acceptor bead.

For the next assay, the target named is FKBP12 (Homo sapiens, UniProt P62942). The assay can be described thus: SPR assay to determine binding affinity to FKBP12 (direct binding). Conditions: immobilized biotinylated avi-FKBP12, single-cycle kinetics. The procedure: SPR Assay to Determine Binding Affinity to FKBP12.
Biotinylated avi-FKBP12 was immobilized on a streptavidin chip (Cytiva Series S SA) using a Biacore 8K or 8k+ (Cytiva). […] Test compounds described in Table 11 were diluted in DMSO to 100× working concentration. Each test compound was 100-fold diluted in 50 mM HEPES pH 7.5, 150 mM NaCl, 2 mM MgCl2, 1 mM DTT, 0.05% Tween-20 and a serial dilution prepared (9 concentrations, 3-fold dilutions, 0.08-500 nM). […] The compound dilutions were then injected at 100 uL/min for 120 seconds contact time in sequence with increasing concentrations. Dissociation was monitored for 3600 seconds. 50 mM HEPES pH 7.5, 150 mM NaCl, 2 mM MgCl2, 1 mM DTT, 0.05% Tween-20, 1% DMSO was used as running buffer. The single-cycle kinetics data were fit to a 1:1 binding model to measure the association rate ka (1/Ms), the dissociation rate kd (1/s) and the affinity Kd (M).

Chain of FKBP12 (P62942 whole entry, species assumed): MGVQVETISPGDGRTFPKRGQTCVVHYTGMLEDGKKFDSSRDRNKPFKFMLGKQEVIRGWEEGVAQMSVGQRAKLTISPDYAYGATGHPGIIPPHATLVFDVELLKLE

As to `CO[C@@H]1C[C@H](C[C@@H](C)[C@@H]2CC(=O)[C@H](C)/C=C(\C)[C@@H](O)[C@@H](OC)C(=O)[C@H](C)C[C@H](C)/C=C/C=C/C=C(\C)[C@H](OCCOCCO)C[C@@H]3CC[C@@H](C)[C@@](O)(O3)C(=O)C(=O)N3CCCC[C@H]3C(=O)O2)CC[C@H]1O` [Compound 125, (1R,9S,12S,15R,16E,18R,19R,21R,23S,24E,26E,28E,30R,32S,35R)-1,18-dihydroxy-30-[2-(2-hydroxyethoxy)ethoxy]-12-[(1R)-2-[(1S,3R,4R)-4-hydroxy-3-methoxy-cyclohexyl]-1-methyl-ethyl]-19-methoxy-15,17,21,23,29,35-hexamethyl-11,36-dioxa-4-azatricyclo[30.3.1.04,9]hexatriaconta-16,24,26,28-tetraene-2,3,10,14,20-pentone], the Kd in assay [1] is above 1100 nM; on FKBP12, below 0.3 nM. The IC50 on mTORC1 was in the range of 0.8 to 1.5 nM.

Turning to `CO[C@@H]1C[C@H](C[C@@H](C)[C@@H]2CC(=O)[C@H](C)/C=C(\C)[C@@H](O)[C@@H](OC)C(=O)[C@H](C)C[C@H](C)/C=C/C=C/C=C(\C)[C@H](OC3CC3)C[C@@H]3CC[C@@H](C)[C@@](O)(O3)C(=O)C(=O)N3CCCC[C@H]3C(=O)O2)CC[C@H]1OCCO` [Compound 128, (1R,9S,12S,15R,16E,18R,19R,21R,23S,24E,26E,28E,30R,32S,35R)-30-(cyclopropoxy)-1,18-dihydroxy-12-[(1R)-2-[(1S,3R,4R)-4-(2-hydroxyethoxy)-3-methoxy-cyclohexyl]-1-methyl-ethyl]-19-methoxy-15,17,21,23,29,35-hexamethyl-11,36-dioxa-4-azatricyclo[30.3.1.04,9]hexatriaconta-16,24,26,28-tetraene-2,3,10,14,20-pentone], the Kd in assay [1] is below 500 nM; at FKBP12 it was above 1 nM. Further, the IC50 at mTORC1 was in the range of 0.8 to 1.5 nM.

`CO[C@@H]1C[C@H](C[C@@H](C)[C@@H]2CC(=O)[C@H](C)/C=C(\C)[C@@H](O)[C@@H](OC)C(=O)[C@H](C)C[C@H](C)/C=C/C=C/C=C(\C)[C@H](OCC3COC3)C[C@@H]3CC[C@@H](C)[C@@](O)(O3)C(=O)C(=O)N3CCCC[C@H]3C(=O)O2)CC[C@H]1O` [Compound 122, (1R,9S,12S,15R,16E,18R,19R,21R,23S,24E,26E,28E,30R,32S,35R)-1,18-dihydroxy-12-[(2R)-1-[(1S,3R,4R)-4-hydroxy-3-methoxycyclohexyl]propan-2-yl]-19-methoxy-15,17,21,23,29,35-hexamethyl-30-[(oxetan-3-yl)methoxy]-11,36-dioxa-4-azatricyclo[30.3.1.04,9]hexatriaconta-16,24,26,28-tetraene-2,3,10,14,20-pentone]: the Kd in assay [1] is above 1100 nM; on FKBP12, 0.3 to 1 nM. Also, the IC50 on mTORC1 lay within 0.8 to 1.5 nM.

As to `COCCO[C@@H]1C[C@@H]2CC[C@@H](C)[C@@](O)(O2)C(=O)C(=O)N2CCCC[C@H]2C(=O)O[C@H]([C@H](C)C[C@@H]2CC[C@@H](OCCCO)[C@H](OC)C2)CC(=O)[C@H](C)/C=C(\C)[C@@H](O)[C@@H](OC)C(=O)[C@H](C)C[C@H](C)/C=C/C=C/C=C/1C` [Compound 28, (1R,9S,12S,15R,16E,18R,19R,21R,23S,24E,26E,28E,30R,32S,35R)-1,18-dihydroxy-12-[(1R)-2-[(1S,3R,4R)-4-(3-hydroxypropoxy)-3-methoxy-cyclohexyl]-1-methyl-ethyl]-19-methoxy-30-(2-methoxyethoxy)-15,17,21,23,29,35-hexamethyl-11,36-dioxa-4-azatricyclo[30.3.1.04,9]hexatriaconta-16,24,26,28-tetraene-2,3,10,14,20-pentone], the Kd is 500 to 1100 nM in assay [1] and above 1 nM at FKBP12. Moreover, the half-inhibitory concentration (IC50) on mTORC1 was above 1.5 nM.

On to `COCCO[C@@H]1C[C@@H]2CC[C@@H](C)[C@@](O)(O2)C(=O)C(=O)N2CCCC[C@H]2C(=O)O[C@H]([C@H](C)C[C@@H]2CC[C@@H](O)[C@H](OC)C2)CC(=O)[C@H](C)/C=C(\C)[C@@H](O)[C@@H](OC)C(=O)[C@H](C)C[C@H](C)/C=C/C=C/C=C/1C` [Compound 130, (1R,9S,12S,15R,16E,18R,19R,21R,23S,24E,26E,28E,30R,32S,35R)-1,18-dihydroxy-12-[(1R)-2-[(1S,3R,4R)-4-hydroxy-3-methoxy-cyclohexyl]-1-methyl-ethyl]-19-methoxy-30-(2-methoxyethoxy)-15,17,21,23,29,35-hexamethyl-11,36-dioxa-4-azatricyclo[30.3.1.04,9]hexatriaconta-16,24,26,28-tetraene-2,3,10,14,20-pentone], for which the Kd in assay [1] fell in the range of 500 to 1100 nM; at FKBP12 it was 0.3 to 1 nM. The IC50 at mTORC1 is 0.8 to 1.5 nM.

Turning to `CO[C@@H]1C[C@H](C[C@@H](C)[C@@H]2CC(=O)[C@H](C)/C=C(\C)[C@@H](O)[C@@H](OC)C(=O)[C@H](C)C[C@H](C)/C=C/C=C/C=C(\C)[C@H](OCCc3ccccc3)C[C@@H]3CC[C@@H](C)[C@@](O)(O3)C(=O)C(=O)N3CCCCC3C(=O)O2)CC[C@H]1O` (stereo partly drawn) [Compound 121, (1R,9S,12S,15R,16E,18R,19R,21R,23S,24E,26E,28E,30R,32S,35R)-1,18-dihydroxy-12-[(1R)-2-[(I S,3R,4R)-4-hydroxy-3-methoxy-cyclohexyl]-1-methyl-ethyl]-19-methoxy-15,17,21,23,29,35-hexamethyl-30-(2-phenylethoxy)-11,36-dioxa-4-azatricyclo[30.3.1.04,9]hexatriaconta-16,24,26,28-tetraene-2,3,10,14,20-pentone], the values for the Kd (in assay [1]; on FKBP12) were below 500 nM and above 1 nM, respectively. On mTORC1, the IC50 was 0.8 to 1.5 nM.

With `COCCO[C@@H]1C[C@@H]2CC[C@@H](C)[C@@](O)(O2)C(=O)C(=O)N2CCCC[C@H]2C(=O)O[C@H]([C@H](C)C[C@@H]2CC[C@@H](OCCO)[C@H](OC)C2)CC(=O)[C@H](C)/C=C(\C)[C@@H](O)[C@@H](OC)C(=O)[C@H](C)C[C@H](C)/C=C/C=C/C=C/1C` [Compound 40, (1R,9S,12S,15R,16E,18R,19R,21R,23S,24E,26E,28E,30R,32S,35R)-1,18-dihydroxy-12-[(1R)-2-[(1S,3R,4R)-4-(2-hydroxyethoxy)-3-methoxy-cyclohexyl]-1-methyl-ethyl]-19-methoxy-30-(2-methoxyethoxy)-15,17,21,23,29,35-hexamethyl-11,36-dioxa-4-azatricyclo[30.3.1.0^4,9]hexatriaconta-16,24,26,28-tetraene-2,3,10,14,20-pentone], the figures for the Kd (in assay [1]; on FKBP12) were 500 to 1100 nM and above 1 nM, respectively. At mTORC1, the IC50 was above 1.5 nM.

In the case of `COCCO[C@H]1C[C@@H]2CC[C@@H](C)[C@@](O)(O2)C(=O)C(=O)N2CCCC[C@H]2C(=O)O[C@H]([C@H](C)C[C@@H]2CC[C@@H](OCCO)[C@H](OC)C2)CC(=O)[C@H](C)/C=C(\C)[C@@H](O)[C@@H](OC)C(=O)[C@H](C)C[C@H](C)/C=C/C=C/C=C/1C` [Compound 439, (1R,9S,12S,15R,16E,18R,19R,21R,23S,24E,26E,28E,30S,32S,35R)-1,18-dihydroxy-12-[(1R)-2-[(1S,3R,4R)-4-(2-hydroxyethoxy)-3-methoxy-cyclohexyl]-1-methyl-ethyl]-19-methoxy-30-(2-methoxyethoxy)-15,17,21,23,29,35-hexamethyl-11,36-dioxa-4-azatricyclo[30.3.1.0^4,9]hexatriaconta-16,24,26,28-tetraene-2,3,10,14,20-pentone], the Kd in assay [1] was below 500 nM; at FKBP12, 0.3 to 1 nM. The IC50 at mTORC1 was below 0.8 nM.

(Values after patent US20230331737A1, “MTORC1 MODULATORS AND USES THEREOF” (Aeovian Pharmaceuticals, Inc., priority 2020, published 2023).)
